From US7220784B2, “Substituted stilbenes and their reactions” (priority 2000, dated 2007) come the findings set out here.

pIC50: −log10 of the molar value. Like-named read-outs stand apart in the source and are kept apart here.

Assay [1] has as its system K562 cells. The experiment in a line: In situ ultra violet irradiation of dosed K562 cells, IC50. The class given is cell-based, human. To be noted: read-out: IC50 K562 (Nm). As to the method:
Previously, the isomerisation study had been performed ex situ, i.e. in a photochemical reactor. However, it was necessary to illustrate the potential of the process as a real therapy by repeating the isomerization in the presence of the caner cells i.e. in situ. […] Following irradiation, the cells were incubated in the normal way and the IC50 values were determined.
These consisted of i) exposing K562 cells only (i.e. cells which were not dosed with any potential drug candidate) to ultra violet light, ii) preventing K562 cells dosed with drug candidate from being exposed to ultra violet light, and iii) preventing K562 cells only (i.e. cells which were not dosed with any potential drug candidate) from being exposed to ultra violet light. […]

For assay [2], the system named is K562 human myelogeneous leukaemia cell line. The experiment in a line: Cytotoxicity/growth inhibition assay (MTT), K562. The format is cell-based. From the text:
In addition to the cell lines described in this paper, other established human cell lines (K562, HUVEC, H460, BE, H529, and HT29) were used in the cytotoxicity/growth inhibition assay. • (1) Inhibition of tubulin assembly. The figure quoted is the concentration required to reduce assembly of tubulin by 50%. Tubulin assembly is monitored by light scatter/absorption at 350 nm.
(2) Competition for the colchicine binding site on tubulin. The figure quoted represents the % of ^3H-colchicine bound following co-incubation of test compound and ^3H-cochicine with isolated tubulin. Where ester pro-drugs were used the experiments were carried out in the presence and absence of porcine liver esterase. • (3) Cytotoxicity/growth inhibition assay. This was carried out by the MTT assay. • (4) Permeability (shape-change) assay in endothelial cells. […] This involved the diffusion of a fluorescently labelled dextran through a barrier of endothelial cells (HUVEC) grown to confluence on a porous membrane. The effect of agents to alter the shape of these cells results in an increase in the permeability of the cells to the dye. The figure represents the increase in permeability over control cultures when drug is added (30 minutes, 1 mM.). • (5) Experiments to study the anti-vascular effects of these agents were carried out as described previously by our group. […] The anti-vascular effects of the agents were monitored by either positron emission tomography (PET) or by histologogical examination following treatment of mice bearing T50:80 murine breast tumours, or H460 human lung tumours. • (6) Anti-tumour efficacy of agents was determined in xenografts of H460 human lung cancer. Animals (n=5) were trated either with 5 daily injections and tumour size measured with time following treatment. • (7) The pharmacokinetic profile of agents was determined in mice following injection with drug. Blood was taken at various times following treatment and analysed by HPLC with UV detection. […] (AND(P)H:quinone oxidoreductace, EC 1.6.99.2). DT-diaphorase is an enzyme over-expressed in a number of human tumours. […] This two-electron reducing enzyme can be used to selectively activate prodrugs within cancers which over-express the enzyme.

The test system of assay [3] is tubulin. The experiment in a line: MA IC50 (Tables 12-26, abbreviation not defined). The format is biochemical.
For assay [4], the system named is tubulin. The experiment in a line: CD IC50 (Tables 12-26, abbreviation not defined). The class given is binding.
The subject of assay [5] is K562. The experiment in a line: K562 cell cycle analysis. To be noted: K562. The format is cell-based, human.
Where [6] appears, read: Homo sapiens, K562, MTT, read-out: K562 IC50.
The mark [7] stands for this setting: Homo sapiens, K562, Table 22, read-out: MTT (K582) IC50.
[8] abbreviates: Table 22, read-out: MTT (K582) IC50.
Where [9] appears, read: of cells with DNA content = 2 n or >2 n.

Turning to “4-[2′-methoxy-4′-({2″-methoxy-5″-[(E)-2′″-3′″,4′″,5′″-trimethoxyphenyl)ethenyl]phenoxy}methyl)-5′-nitrophenoxy]butanoic acid(potassium salt) [Compound E-12]”, the pIC50 (as a rule, the IC50 on a negative log10 scale, so that one unit is a factor of ten) is less than 4.30 in assay [1] (in situ UV 0 mins (Table 10)); 6.00 in assay [1] (in situ UV 0.5 mins (Table 10)); 6.39 in assay [1] (in situ UV 1 mins (Table 10)); 6.52 in assay [1] (in situ UV 1.5 mins (Table 10)); 6.80 in assay [1] (in situ UV 2 mins (Table 10)); 7.30 in assay [1] (in situ UV 3 mins (Table 10)). The pIC50 in assay [1] (in situ UV 4 mins (Table 10)) was 7.24; in assay [1] (in situ UV 5 mins (Table 10)) it was 7.34; in assay [1] (in situ UV 7.5 mins (Table 10)), 7.66; in assay [1] (in situ UV 10 mins (Table 10)) it was 7.80; in assay [1] (in situ UV 12.5 mins (Table 10)), 7.92; in assay [1] (in situ UV 15 mins (Table 10)), 8.00. Besides, the pIC50 in assay [1] (in situ UV 17.5 mins (Table 10)) was 8.05; in assay [1] (in situ UV 20 mins (Table 10)), 8.10.
Take `COc1ccc(/C=C(/C)c2cc(OC)c(OC)c(OC)c2)cc1O[Si](C)(C)C(C)(C)C` [Compound 17a, Z-(3′-t-butyldimethylsilyloxy-4′-methoxyphenyl)-2-(3″,4″,5″-trimethoxyphenyl)propene]: the pIC50 in assay [2] (setting [6]) was 6.70.
The same measure, in the same setting: under `COc1ccc(/C=C(\C)c2cc(OC)c(OC)c(OC)c2)cc1O[Si](C)(C)C(C)(C)C` [Compound 17b, E-1-(3′-t-Butyldimethylsilyloxy-4′-methoxyphenyl)-2-(3″,4″,5″-trimethoxyphenyl)propene] stands 5.22; under `COc1ccc(/C=C(/C)c2cc(OC)c(OC)c(OC)c2)cc1` [Compound 23a, Z-1-(4′-Methoxyphenyl)-2-(3″,4″,5″-trimethoxyphenyl)propene], 7.00.
On the same count and under the same terms, as for `COc1ccc(/C=C(\C)c2cc(OC)c(OC)c(OC)c2)cc1` [Compound 23b, E-1-(4′-Methoxyphenyl)-2-(3″,4″,5″-trimethoxyphenyl)propene], the figure is 6.10; as for `COc1ccc(/C=C\c2cc(C)c(C)c(C)c2)cc1Oc1c(F)c(F)nc(F)c1F` [Compound 27, (Z)-1-(3′,4′,5′-trimethylphenyl)-2-(3″-(2′″,3′″,5′″,6′″-tetrafluoropyridoxy)-4″-methoxyphenyl)ethene], 5.05.
On to `COc1ccc(C=C(C(=O)O)c2cc(OC)c(OC)c(OC)c2)cc1O` [Compound 80], for which the results for the pIC50 in assay [2] (setting [7]), in assay [3] and in assay [4] were less than 4.30, less than 5.00 and less than 4.60, respectively.
The like results for `COC(=O)C(=Cc1ccc(OC)c(O)c1)c1cc(OC)c(OC)c(OC)c1` [Compound 81] were, in that order, less than 4.30, less than 5.00 and less than 4.60.
For `COc1ccc(C=C(CO)c2cc(OC)c(OC)c(OC)c2)cc1O` [Compound 82] the same measures were less than 4.30, less than 5.00 and less than 4.60.
With `COc1ccc(/C=C/c2cc(OC)c(OC)c(OC)c2)cc1Br` [Compound 96], the pIC50 was 5.11 in assay [2] (MTT, read-out: K562 IC50); less than 5.00 in assay [3]; less than 4.60 in assay [4].
With `COc1ccc(C=C(C)c2cc(OC)c(OC)c(OC)c2)cc1O[Si](C)(C)C(C)(C)C` [Compound 208], the figures for the pIC50 in assay [2] (setting [7]), in assay [3] and in assay [4] were 6.70, 5.82 and less than 4.60, respectively.
As for `COc1ccc(/C=C(\C)c2cc(OC)c(OC)c(OC)c2)cc1O[Si](C)(C)C(C)(C)C` [Compound 209], the pIC50 in assay [2] (setting [8]) was 5.22; in assay [3] it was less than 5.00; in assay [4] it was less than 4.60.
Take `COc1ccc(/C=C(\C)c2cc(OC)c(OC)c(OC)c2)cc1O` [Compound 211]: the pIC50 in assay [2] (setting [6]) was 6.15; in assay [2] (setting [7]), 6.15; in assay [3] it was less than 5.00; in assay [4] it was less than 4.60.
On to `COc1ccc(/C=C(\C)c2cc(OC)c(OC)c(OC)c2)cc1` [Compound 214], for which the pIC50 in assay [2] (setting [8]) was 6.10; in assay [3], less than 5.00; in assay [4], less than 4.60.
For the compound `CCC(=Cc1ccc(OC)c(O[Si](C)(C)C(C)(C)C)c1)c1cc(OC)c(OC)c(OC)c1` [Compound 217], the pIC50 was 6.30 in assay [2] (setting [7]), less than 5.00 in assay [3] and less than 4.60 in assay [4].
As for `CC/C(=C\c1ccc(OC)c(O[Si](C)(C)C(C)(C)C)c1)c1cc(OC)c(OC)c(OC)c1` [Compound 218], the values for the pIC50 in assay [2] (setting [8]), in assay [3] and in assay [4] were 5.47, less than 5.00 and less than 4.60, respectively.
As to `CC/C(=C\c1ccc(OC)c(O)c1)c1cc(OC)c(OC)c(OC)c1` [Compound 220], the values for the pIC50 in assay [2] (setting [8]), in assay [3] and in assay [4] were 5.40, less than 5.00 and less than 4.60, respectively.
For the compound `COc1ccc(/C=C\c2cc(OC)c(OC)c(O[Si](C)(C)C(C)(C)C)c2)cc1F` [Compound 240], the pIC50 in assay [2] (setting [6]) was 6.30; in assay [3] it was less than 5.00; in assay [4], less than 4.60.
Regarding `COc1ccc(/C=C/c2cc(OC)c(OC)c(O[Si](C)(C)C(C)(C)C)c2)cc1F` [Compound 241], the pIC50 is 5.00 in assay [2] (MTT, read-out: K562 IC50); less than 5.00 in assay [3]; less than 4.60 in assay [4].
With `COc1ccc(/C=C\c2cc(O)c(OC)c(OC)c2)cc1F` [Compound 242], the pIC50 in assay [2] (setting [6]) is 7.70. This compound showed a negative logarithm of the IC50 (pIC50) in assay [3] of 5.90. The compound also gave a pIC50 in assay [4] of 5.05. The “% of cells with DNA content <2 n” value in assay [5] is listed as 29%. Moreover, in assay [5] (setting [9]), the “% of cells in G0–G1” value came out at 7%, the “% of cells in G2-M” value turned out to be 71% and the “% of cells in S phase” value stood at 22%.
Turning to `COc1ccc(/C=C/c2cc(O)c(OC)c(OC)c2)cc1F` [Compound 243], the negative-log IC50 (pIC50) in assay [2] (MTT, read-out: K562 IC50) is 5.30; in assay [3], less than 5.00; in assay [4] it was less than 4.60.
Turning to `CCOc1cc(C=Cc2ccc(OC)c(Br)c2)cc(OCC)c1OCC` [Compound 247], the pIC50 in assay [2] (setting [6]) is 6.22; in assay [3] it was less than 5.00; in assay [4] it was less than 4.60.
On to `CCOc1cc(/C=C/c2ccc(OC)c(Br)c2)cc(OCC)c1OCC` [Compound 248], for which the pIC50 is less than 4.30 in assay [2] (MTT, read-out: K562 IC50); less than 5.00 in assay [3]; less than 4.60 in assay [4].
Take `CCOc1cc(C=Cc2ccc(OC)cc2)cc(OCC)c1OCC` [Compound 249]: the pIC50 was 6.30 in assay [2] (setting [6]), less than 5.00 in assay [3] and less than 4.60 in assay [4].
Regarding `CCOc1cc(/C=C/c2ccc(OC)cc2)cc(OCC)c1OCC` [Compound 250], the pIC50 in assay [2] (MTT, read-out: K562 IC50) is less than 4.30; in assay [3] it was less than 5.00; in assay [4], less than 4.60.
The like results for `CCOc1cc(/C=C/c2ccc(OC)c(F)c2)cc(OCC)c1OCC` [Compound 252] were, in that order, less than 4.30, less than 5.00 and less than 4.60.
Consider `CCOc1cc(/C=C/c2ccc(OC)c(O)c2)cc(OCC)c1OCC` [Compound 254], for which the pIC50 in assay [2] (MTT, read-out: K562 IC50) was 6.70; in assay [3] it was less than 5.00; in assay [4], less than 4.60.
For the compound `CCOc1cc(C=Cc2ccc(OC)c(Br)c2)cc(OCC)c1OCC` [Compound 255], the pIC50 in assay [3] was less than 5.00; in assay [4], less than 4.60.
Consider `CCOc1cc(C=Cc2ccc(OC)c(Cl)c2)cc(OCC)c1OCC` [Compound 257], for which the pIC50 in assay [2] (setting [6]) was 6.35; in assay [3], less than 5.00; in assay [4], less than 4.60.
Consider `CCOc1cc(/C=C/c2ccc(OC)c(Cl)c2)cc(OCC)c1OCC` [Compound 258], for which the pIC50 in assay [2] (MTT, read-out: K562 IC50) is 5.15; in assay [3] it was less than 5.00; in assay [4] it was less than 4.60.
